This note sets out measurements from patent publication US6429215B1, “N-oxide of heterocyclic ester, amide, thioester, or ketone hair growth compositions and uses” (GPI NIL Holdings, Inc., priority 1998, dated 2002).

This assay addresses FKBP12 (Homo sapiens, UniProt P62942). In words: Inhibition of peptidyl-prolyl isomerase (rotamase) activity, apparent Ki. Format: biochemical. Particulars: chymotrypsin-coupled assay, N-succinyl-Ala-Ala-Pro-Phe-p-nitroanilide, pH 7.8. The text has this:
The inhibition of the prolyl peptidyl cis-trans isomerase activity of FKBP may be measured as an indicator of this affinity.
Inhibition of the peptidyl-prolyl isomerase (rotamase) activity of the compounds used in the inventive methods and pharmaceutical compositions can be evaluated by known methods described in the literature (Harding et al., Nature, 1989, 341:758-760; Holt et al. J. Am. Chem. Soc., 115:9923-9938). These values are obtained as apparent Ki's and are presented for representative compounds in TABLE II.
The cis-trans isomerization of an alanine-proline bond in a model substrate, N-succinyl-Ala-Ala-Pro-Phe-p-nitroanilide, is monitored spectrophotometrically in a chymotrypsin-coupled assay, which releases paranitroanilide from the trans form of the substrate. The inhibition of this reaction caused by the addition of different concentrations of inhibitor is determined, and the data is analyzed as a change in first-order rate constant as a function of inhibitor concentration to yield the apparent Ki values. […]
The absorbance at 390 nm versus time is monitored for 90 seconds using a spectrophotometer and the rate constants are determined from the absorbance versus time data files.

FKBP12, sequence (P62942 whole entry, species assumed): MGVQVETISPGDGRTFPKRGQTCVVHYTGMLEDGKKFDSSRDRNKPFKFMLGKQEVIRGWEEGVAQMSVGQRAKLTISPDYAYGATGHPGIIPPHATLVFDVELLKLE

In the case of “3-(3-Pyridyl)-1-propyl (2S)-1-(3,3-Dimethyl-1,2-dioxopentyl)-2-pyrrolidinecarboxylate, N-oxide [Compound 1]”, the Ki came out at 0.225 µM.
